The structures appear in SMILES notation. Converted amounts (≈) assume the structure as drawn.

Holding throughout (type): physicochemical
Data set [1] is described as follows: Approximate solubility of starting material in 20 solvents at RT. As to the method:
(peak) with one exotherm at 166.1° C. (peak). Approximate solubility of starting material was determined in 20 solvents at RT. Approximately 2 mg of sample was added into a 3-mL glass vial. Solvents in Table 2 were then added stepwise into the vials until the solids were dissolved visually or a total volume of 2 mL was reached. Solubility results summarized in Table 2 were used to guide the solvent selection in screening experiment design.

Data set [2] is described as follows: DVS water uptake. As to the method: DVS was measured via a SMS (Surface Measurement Systems) DVS Intrinsic or Intrinsic Plus. The relative humidity at 25° C. were calibrated against deliquescence point of LiCl, Mg(NO3)2 and KCl.
Data set [3] can be described thus: Heating experiment of Type A (XRPD).

In general, solubility refers to how much of the substance goes into solution per volume. On to `O=C(/C=C/c1ccc2c(c1)CCN2S(=O)(=O)c1ccccc1)NO` [Type A, (E)-N-hydroxy-3-(1-(phenylsulfonyl)indolin-5-yl) acrylamide], for which the solubility in data set [1] (THE (as stored; likely THF), organic solvent or mixture, thermodynamic from solid, THE, RT) is more than 44000 µg/mL; in data set [1] (organic solvent or mixture, thermodynamic from solid, 1,4-Dioxane, RT) it was 21000 to 42000 µg/mL (≈ 61 to 122 mM); in data set [1] (organic solvent or mixture, thermodynamic from solid, 2-MeTHF, RT), 2000 to 5000 µg/mL (≈ 5.81 to 14.5 mM); in data set [1] (organic solvent or mixture, thermodynamic from solid, ACN, RT) it was 9500 to 19000 µg/mL (≈ 27.6 to 55.2 mM); in data set [1] (organic solvent or mixture, thermodynamic from solid, Acetone, RT) it was more than 40000 µg/mL; in data set [1] (organic solvent or mixture, thermodynamic from solid, CHCl3, RT), less than 1000 µg/mL. Moreover, the solubility is 1000 to 2000 µg/mL (≈ 2.9 to 5.81 mM) in data set [1] (organic solvent or mixture, thermodynamic from solid, DCM, RT); more than 40000 µg/mL in data set [1] (organic solvent or mixture, thermodynamic from solid, DMAc, RT); more than 40000 µg/mL in data set [1] (organic solvent or mixture, thermodynamic from solid, DMSO, RT); 2000 to 5000 µg/mL (≈ 5.81 to 14.5 mM) in data set [1] (organic solvent or mixture, thermodynamic from solid, EtOAc, RT); 5500 to 11000 µg/mL (≈ 16 to 31.9 mM) in data set [1] (organic solvent or mixture, thermodynamic from solid, EtOH, RT); 2000 to 5000 µg/mL (≈ 5.81 to 14.5 mM) in data set [1] (organic solvent or mixture, thermodynamic from solid, IPA, RT). The solubility was less than 1100 µg/mL in data set [1] (organic solvent or mixture, thermodynamic from solid, IPAc, RT); 2000 to 5000 µg/mL (≈ 5.81 to 14.5 mM) in data set [1] (organic solvent or mixture, thermodynamic from solid, MIBK, RT); less than 1000 µg/mL in data set [1] (organic solvent or mixture, thermodynamic from solid, MTBE, RT); 20000 to 40000 µg/mL (≈ 58.1 to 116 mM) in data set [1] (organic solvent or mixture, thermodynamic from solid, MeOH, RT); more than 40000 µg/mL in data set [1] (organic solvent or mixture, thermodynamic from solid, NMP, RT); less than 1000 µg/mL in data set [1] (organic solvent or mixture, thermodynamic from solid, Toluene, RT). Further, the solubility in data set [1] (organic solvent or mixture, thermodynamic from solid, n-Heptane, RT) is less than 1000 µg/mL; in data set [1] (water, thermodynamic from solid, H2O, RT), less than 1000 µg/mL. Further, the “water uptake (DVS)” value in data set [2] (25° C./80% RH) is recorded as 0.1396%. Also, the “form change after DVS test (XRPD)” value in data set [2] (after DVS test) was “no form change”. For the same compound, the “form after heating (XRPD)” value in data set [3] (heated to 100° C. and cooled to RT) is listed as “no form change”; in data set [3] (heated to 122° C./130° C. and cooled to RT) it was “converted to a new form, named as Type B”.
